Experimental data published in PMC3407035 (Journal of enzyme inhibition and medicinal chemistry, 2011).

Key:
[1] = biological target: T1, Human GGT1 (gamma-glutamyl transpeptidase, GGT) (Homo sapiens, UniProt P19440); test: pNA release at […] nm, hydrolysis; assay type: biochemical; conditions: read-out: D-GpNA Minus acceptor; no acceptor, pH 7.4, 37 °C
[2] = biological target: T1, Human GGT1 (gamma-glutamyl transpeptidase, GGT); test: pNA release at […] nm, transpeptidation; assay type: biochemical

T1 sequence (P19440 27-380 limits assumed): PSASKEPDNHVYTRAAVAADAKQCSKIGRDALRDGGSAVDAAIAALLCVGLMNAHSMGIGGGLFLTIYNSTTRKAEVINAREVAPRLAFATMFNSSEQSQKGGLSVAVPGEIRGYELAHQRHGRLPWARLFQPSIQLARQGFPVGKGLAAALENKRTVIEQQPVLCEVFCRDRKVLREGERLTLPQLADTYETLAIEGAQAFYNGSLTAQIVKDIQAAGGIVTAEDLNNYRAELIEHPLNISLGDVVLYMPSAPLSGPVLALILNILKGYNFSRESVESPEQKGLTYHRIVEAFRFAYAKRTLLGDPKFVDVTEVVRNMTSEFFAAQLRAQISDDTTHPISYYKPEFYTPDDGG
T1 sequence (P19440 381-569 limits assumed): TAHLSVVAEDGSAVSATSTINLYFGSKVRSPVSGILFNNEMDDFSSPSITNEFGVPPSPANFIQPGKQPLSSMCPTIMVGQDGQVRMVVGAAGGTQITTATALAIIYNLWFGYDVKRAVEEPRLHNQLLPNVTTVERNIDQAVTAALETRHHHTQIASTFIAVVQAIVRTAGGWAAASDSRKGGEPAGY

Structure (SMILES)	Km [1] [µM]	Ki [2] [µM]
Cc1ccc(Cc2nnc(NS(=O)(=O)c3ccc([N+](=O)[O-])cc3)s2)cc1 [compound 17, Compound 17]	–	56.9 ± 8.3
COc1ccc(Cc2nnc(NS(=O)(=O)c3ccc(Cl)cc3)s2)cc1 [compound 10, Compound 10]	–	13.4 ± 0.8
COc1ccc(Cc2nnc(NS(=O)(=O)c3cccc4ccccc34)s2)cc1 [compound 6, Compound 6]	–	45.7 ± 3.4

Further lines, results first:

Km [1] [µM]	Ki [2] [µM]	Structure (SMILES)
160 ± 20	–	N[C@H](CCC(=O)Nc1ccc([N+](=O)[O-])cc1)C(=O)O [D-GpNA]
–	34.3 ± 0.9	Cc1cccc(Cc2nnc(NS(=O)(=O)c3ccc([N+](=O)[O-])cc3)s2)c1 [compound 18, Compound 18]
